In US20250340537A1, “PHARMACEUTICALLY ACTIVE COMPOUNDS, COMPOSITIONS, AND METHODS FOR MODULATING PENDRIN” (ARBORMED Co., Ltd., priority 2022, published 2025):

molecular target: T1, H723R-pendrin (Homo sapiens, UniProt O43511, H723R); assay: YFP fluorescence quenching assay (Cl−/I− exchange activity of pendrin); format: cell-based; conditions: PANC-1 cells stably expressing human H723R-pendrin and YFP-F46L/H148Q/I152L; compound incubation 20-24 hours; iodide influx
T1 construct: expressed in transfected cells; host or cells: PANC-1
T1 sequence (O43511 1-780 H723R): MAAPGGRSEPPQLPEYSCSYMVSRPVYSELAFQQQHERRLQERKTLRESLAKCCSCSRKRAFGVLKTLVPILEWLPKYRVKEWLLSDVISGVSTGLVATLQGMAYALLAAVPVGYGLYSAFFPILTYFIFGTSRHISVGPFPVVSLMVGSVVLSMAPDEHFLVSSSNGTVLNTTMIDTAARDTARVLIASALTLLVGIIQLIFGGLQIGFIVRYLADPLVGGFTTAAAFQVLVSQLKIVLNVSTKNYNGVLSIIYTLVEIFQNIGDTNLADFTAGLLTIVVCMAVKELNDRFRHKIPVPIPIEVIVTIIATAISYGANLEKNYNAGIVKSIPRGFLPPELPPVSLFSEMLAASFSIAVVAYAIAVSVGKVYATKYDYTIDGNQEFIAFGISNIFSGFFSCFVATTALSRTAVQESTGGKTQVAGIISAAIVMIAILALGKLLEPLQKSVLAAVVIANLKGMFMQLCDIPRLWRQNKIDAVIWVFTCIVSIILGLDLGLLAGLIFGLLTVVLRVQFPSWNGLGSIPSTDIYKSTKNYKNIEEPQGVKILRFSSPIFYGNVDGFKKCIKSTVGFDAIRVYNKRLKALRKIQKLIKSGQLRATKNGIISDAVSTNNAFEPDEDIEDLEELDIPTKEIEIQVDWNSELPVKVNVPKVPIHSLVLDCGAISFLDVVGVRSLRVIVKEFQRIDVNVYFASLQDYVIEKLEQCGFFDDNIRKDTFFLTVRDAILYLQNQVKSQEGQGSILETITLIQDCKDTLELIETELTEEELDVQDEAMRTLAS
Outline: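 PANC-1 cells stably co-expressing human H723R-pendrin and YFP-F46L/H148Q/I152L, treated with compounds for 20-24 h at 37 °C. Initial iodide influx rate after NaI-substituted HEPES buffer (pH 7.4) addition, taken from the initial slope of YFP fluorescence quench by nonlinear regression. EC50 reported in bins.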

EC50, < 5 µM:
NC1=C(c2cncc(-c3ccc(O)c(O)c3)n2)C(=O)CN1c1ccccc1Cl [Compound 9]
NC1=C(c2cncc(-c3ccc(O)c(O)c3)n2)C(=O)CN1CC1CCCC1 [Compound 18]
COc1cc(-c2nccc(C3=C(N)N(CC4CCCC4)CC3=O)n2)ccc1O [Compound 105]
